From publication PMC3859378 (Archives of biochemistry and biophysics, 2013)

Target: Mtb-GAPDH (Mycobacterium tuberculosis, UniProt P9WN83)
Experiment: time- and concentration-dependent inactivation, Kitz-Wilson re-plot
Format: biochemical
Settings: read-out: Ki

Chain of Mtb-GAPDH (P9WN83 whole entry): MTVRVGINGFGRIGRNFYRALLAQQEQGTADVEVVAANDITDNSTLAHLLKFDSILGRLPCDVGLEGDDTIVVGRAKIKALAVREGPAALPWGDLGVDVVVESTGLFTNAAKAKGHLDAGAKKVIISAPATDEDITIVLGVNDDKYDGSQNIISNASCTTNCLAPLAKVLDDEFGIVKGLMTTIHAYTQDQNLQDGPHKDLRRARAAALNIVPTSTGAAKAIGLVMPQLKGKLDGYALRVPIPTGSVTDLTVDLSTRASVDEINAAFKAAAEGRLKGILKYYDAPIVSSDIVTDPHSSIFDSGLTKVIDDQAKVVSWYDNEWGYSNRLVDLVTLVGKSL

`NC(=O)CI` [IAM, iodoacetamide] showed a KI (inactivation) of 7.8 mM.
